[3'-NH2-LNA] = 3'-amino-3'-deoxy-2'-O,4'-C-methylene-5-methyluridine; d = 2'-deoxy (DNA)
System: double stranded DNA with the sequence of 5′-gctaaaaagaaagagagatcg-3′ (SEQ ID NO: 3) and its complementary strand 5′-cgatctctctttctttttagc-3′ (SEQ ID NO: 4)
Experiment: Measurement of Tm for determination of activity of triplet formation
Format: binding
Details: 7 mM sodium phosphate buffer pH 7.0, 140 mM KCl, 1.5 μM each nucleotide, UV 260 nm

| Substance | Tm (With MgCl2 (10 mM)) [°C] | Tm (Without MgCl2) [°C] |
| --- | --- | --- |
| Oligonucleotide (2): 5′-tttttmtntmtmtmt-3′ (SEQ ID NO: 2), m is 5-methyl 2′-deoxycytidine, n is 3′-amino-3′-deoxy-2′-O,4′-C-methylene-5-methyluridine (TTTTTCTTTCTCTCT; sugars from the 5' end d7 [3'-NH2-LNA]1 d7, all C 5-methyl, backbone not given here; triplex-forming oligonucleotide, further chemistry not fully specified) | 55 | 44 |
| Oligonucleotide (3): natural oligonucleotide which forms a triplet, 5′tttttmtttmtmtmt-3′ (SEQ ID NO: 5), m is 5-methyl-2′deoxycytidine (TTTTTNTTTNTNTNT; 5-methyl-2'-deoxycytidine, chemistry not fully specified) | 44 | 32 |

Reference: US7217805B2, “Bicyclonucleoside analogues” (Sankyo Company, Limited, priority 1999, dated 2007)
